assay: recombinant UMI read abundance after kanamycin selection (control-corrected) (log10(CPM+1)); higher = more efficient recombination; extreme values may be limits of the assay; sequences stand for … in AGTGCAGAGAAAATCGGCCAGTTTTCTCTGCCTGCAGTCCGCATGCCGTGGGACCCCTTGGGTTCTAACCTGTTGCCTAGATTTATGCAGCGGACTGCCTTTCTCCCAAAGTGATAAACCGG…AGGTTGGTTTCACT; site = the 11-nt donor
Method in brief: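 After plating on IPTG (0.07 mM) plus kanamycin, or unselected, in two replicates, recombinant UMIs were PCR-amplified across the donor–target junction and sequenced. The cells were Escherichia coli co-electroporated with a UMI-tagged donor and donor-binding-loop pair library and a target plasmid with a fixed target and T7-inducible IS621 bridge recombinase. Values are log10(CPM+1), with CPM averaged over replicates and scaled by control-derived factors.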
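Also: IS621 bridge recombinase in Escherichia coli cells against a fixed T5 target plasmid.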

Sequence	recombinant UMI read abundance (log10)
GAAGTGGCATGGACCGGTTTTCCCGGTAATCCGTATTTGGT (site GCAGTGGCTAC)	0.177
GACACACCATGGACCGGTTTTCCCGGTAATCCGTATTTGGT (site GACAGACCTAC)	0.00253
ACGTTTGCATGGACCGGTTTTCCCGGTAATCCGTATTTGTC (site ACGTTTGCTGA)	1.45
TACTTGACATGGACCGGTTTTCCCGGTAATCCGTATTTGCT (site TACCTGACTAG)	0.89
CAAGCAGCATGGACCGGTTTTCCCGGTAATCCGTATTTGTT (site CAAGCAGCTAG)	2.47
GCTACGTCATGGACCGGTTTTCCCGGTAATCCGTATTTGTT (site GCTACGTCTAA)	0.808
TGTGTAACATGGACCGGTTTTCCCGGTAATCCGTATTTGGG (site TGTGTAACTCC)	0.0344
CTAGTATCATGGACCGGTTTTCCCGGTAATCCGTATTTGAC (site CTGGCATCTGT)	0
CCCAGATCATGGACCGGTTTTCCCGGTAATCCGTATTTGTC (site CCCATATCTGA)	0
CTTGTAACATGGACCGGTTTTCCCGGTAATCCGTATTTGGC (site CTTGTAACTGC)	0
GCTACTGCATGGACCGGTTTTCCCGGTAATCCGTATTTGCT (site GCTACTGCTGG)	0
ACAAAGACATGGACCGGTTTTCCCGGTAATCCGTATTTGAG (site ACAAAGACTCT)	2.49
ACTGGAACATGGACCGGTTTTCCCGGTAATCCGTATTTGAG (site ACTGGAACTCT)	2.11
GAGCCGACATGGACCGGTTTTCCCGGTAATCCGTATTTGGC (site GAGCCGACTGC)	0
AGCTGGGCATGGACCGGTTTTCCCGGTAATCCGTATTTGTA (site AGCTGGGCTTA)	2.76
CGCTGATCATGGACCGGTTTTCCCGGTAATCCGTATTTGCC (site CGCTGATCTGG)	1.88
TCAGAGACATGGACCGGTTTTCCCGGTAATCCGTATTTGAG (site TCAGAGACTCT)	1.82
AGCCATTCATGGACCGGTTTTCCCGGTAATCCGTATTTGAC (site AGCCGTTCTGT)	0
CGCCTTACATGGACCGGTTTTCCCGGTAATCCGTATTTGCT (site CGCCATACTAG)	0.00361
TCTAAAGCATGGACCGGTTTTCCCGGTAATCCGTATTTGAT (site GCTAAAGCTAT)	0
CTATCATCATGGACCGGTTTTCCCGGTAATCCGTATTTGCG (site CTATCATCTCG)	1.87
GTGGAGGCATGGACCGGTTTTCCCGGTAATCCGTATTTGTG (site ATGGAGGCTCA)	1.53
CTGGAAACATGGACCGGTTTTCCCGGTAATCCGTATTTGCA (site CTGGACACTTG)	0.00329
GATGCAGCATGGACCGGTTTTCCCGGTAATCCGTATTTGTA (site GATGCAGCTTA)	1.62
GCGGAGGCATGGACCGGTTTTCCCGGTAATCCGTATTTGAG (site GCGGAGGCTCT)	1.89

Sequence	recombinant UMI read abundance (log10)
CTAGGATCATGGACCGGTTTTCCCGGTAATCCGTATTTGGC (site CTAGGATCTGC)	2.55
CCCGATCCATGGACCGGTTTTCCCGGTAATCCGTATTTGCA (site CCCGATCCTTG)	0
GAATGGCCATGGACCGGTTTTCCCGGTAATCCGTATTTGCC (site GAATGGCCTTG)	0
CTGACATCATGGACCGGTTTTCCCGGTAATCCGTATTTGCT (site CAGACATCTAG)	1.06
GCTTGGACATGGACCGGTTTTCCCGGTAATCCGTATTTGAC (site GCTTGGACTGT)	2.39
GTATGTACATGGACCGGTTTTCCCGGTAATCCGTATTTGAC (site GTAGGTACTGT)	0.95
CTATGATCATGGACCGGTTTTCCCGGTAATCCGTATTTGCG (site CTATGATCTCG)	3.16
CAAGCAGCATGGACCGGTTTTCCCGGTAATCCGTATTTGCT (site GAAGCAGCTAG)	0.0166
CAATGCCCATGGACCGGTTTTCCCGGTAATCCGTATTTGCT (site CAATACCCTAG)	1.74
CAAGCGTCATGGACCGGTTTTCCCGGTAATCCGTATTTGTG (site CAAGCGTCTCA)	2.6
GGGATTTCATGGACCGGTTTTCCCGGTAATCCGTATTTGGG (site GGGATTTCTCC)	0.679
ACATATCCATGGACCGGTTTTCCCGGTAATCCGTATTTGAC (site ACAAATCCTGT)	0
CTAGTATCATGGACCGGTTTTCCCGGTAATCCGTATTTGAC (site GTAGTGTCTGT)	0.0419
GAGCGTCCATGGACCGGTTTTCCCGGTAATCCGTATTTGGG (site GAGCGTCCTCC)	0.0151
CCTAGAGCATGGACCGGTTTTCCCGGTAATCCGTATTTGAT (site CCTAGAGCTAT)	0.00624
TTTGCGGCATGGACCGGTTTTCCCGGTAATCCGTATTTGCT (site TTTGCGGCTAC)	0.0071
TCGAAAACATGGACCGGTTTTCCCGGTAATCCGTATTTGCT (site TCGAAAACTAG)	0
ATTGAGACATGGACCGGTTTTCCCGGTAATCCGTATTTGGT (site ATTGTGACTAC)	0.471
ATCTTTACATGGACCGGTTTTCCCGGTAATCCGTATTTGAC (site ATCTATACTGT)	0.832
AGCACGACATGGACCGGTTTTCCCGGTAATCCGTATTTGTC (site AGCACGACTGA)	1.47
CGCTAGCCATGGACCGGTTTTCCCGGTAATCCGTATTTGCC (site CGCTAGCCTGG)	0.816
AAGGGTTCATGGACCGGTTTTCCCGGTAATCCGTATTTGTC (site AAGGGTTCTGA)	2.5
ATGCAAACATGGACCGGTTTTCCCGGTAATCCGTATTTGGA (site ATGCAAACTTC)	1.69
ACAGCATCATGGACCGGTTTTCCCGGTAATCCGTATTTGCA (site ACAGGATCTTG)	0
AATGATCCATGGACCGGTTTTCCCGGTAATCCGTATTTGCG (site AATGATCCTCG)	0.677

Sequence	recombinant UMI read abundance (log10)
CGGGAACCATGGACCGGTTTTCCCGGTAATCCGTATTTGAT (site CGGGAACCTAT)	0
AGGAATTCATGGACCGGTTTTCCCGGTAATCCGTATTTGTT (site CGGAATCCTAA)	0
CTGCCATCATGGACCGGTTTTCCCGGTAATCCGTATTTGGT (site CTGCCATCTAC)	0
CTAGTATCATGGACCGGTTTTCCCGGTAATCCGTATTTGAC (site CTATTATCTAT)	0
ATCTATACATGGACCGGTTTTCCCGGTAATCCGTATTTGAC (site ATATATACTGT)	0.408
GCCAAGCCATGGACCGGTTTTCCCGGTAATCCGTATTTGTA (site GCCAGGCCTTA)	0.00969
CACGGCCCATGGACCGGTTTTCCCGGTAATCCGTATTTGTT (site CACGGCCCTGA)	1.16
ATCCAAGCATGGACCGGTTTTCCCGGTAATCCGTATTTGAG (site ATACAAGCTCT)	0.0267
ATGCAGACATGGACCGGTTTTCCCGGTAATCCGTATTTGTT (site ATGCAGACTAA)	1.92
GCCAAGCCATGGACCGGTTTTCCCGGTAATCCGTATTTGTA (site GCCACGCCTTA)	0.00534
CCTAGAGCATGGACCGGTTTTCCCGGTAATCCGTATTTGAT (site CCTACAGCTAT)	0.00404
CAAGCGCCATGGACCGGTTTTCCCGGTAATCCGTATTTGTA (site CAAGCGCCTGA)	1.01
CGGAAACCATGGACCGGTTTTCCCGGTAATCCGTATTTGCT (site CGGAAACCTAG)	0
CGAGCAGCATGGACCGGTTTTCCCGGTAATCCGTATTTGCT (site CAAGCAGCTAG)	1.13
CTGACGACATGGACCGGTTTTCCCGGTAATCCGTATTTGTT (site CTGACGACTAA)	0.0946
CAAGCCCCATGGACCGGTTTTCCCGGTAATCCGTATTTGTG (site CAAGCCCCTCA)	0.0397
TATAGTCCATGGACCGGTTTTCCCGGTAATCCGTATTTGTA (site TAAAGTCCTTA)	0.605
CAATTCCCATGGACCGGTTTTCCCGGTAATCCGTATTTGCT (site GAATTCCCTAG)	0
CGTTAGACATGGACCGGTTTTCCCGGTAATCCGTATTTGCG (site CGTTAGACTCG)	1.85
CTCCCTACATGGACCGGTTTTCCCGGTAATCCGTATTTGCG (site CTCCCTACTCC)	0.0203
GGGGCGCCATGGACCGGTTTTCCCGGTAATCCGTATTTGCA (site GGGGCACCTTG)	0.0167
GTTCCGACATGGACCGGTTTTCCCGGTAATCCGTATTTGTG (site GTTCCGACTCA)	0.0473
CAGTCCTCATGGACCGGTTTTCCCGGTAATCCGTATTTGCC (site CAGTCCTCTGG)	2.38
CGGCACTCATGGACCGGTTTTCCCGGTAATCCGTATTTGTA (site CGGCACTCTTA)	3.03
GATATATCATGGACCGGTTTTCCCGGTAATCCGTATTTGCG (site GATATATCTCG)	1.42

— the supplement of paper PMC11208160
